The nature of data set [1]: Metabolic stability in Sprague-Dawley rat plasma assessed as half life at 1 uM incubated for 60 min by LC-MS/MS method. It is filed as ADME, cell-free.
Data set [2] in a line: Metabolic stability in beagle dog plasma assessed as half life at 1 uM incubated for 60 min by LC-MS/MS method. In kind it is ADME, cell-free, Canis lupus familiaris.
Data set [3] is described as follows: Metabolic stability in human liver S9 fraction assessed as half life at 1 uM incubated for 60 min by LC-MS/MS method. In kind it is ADME, subcellular.
The nature of data set [4]: Metabolic stability in human plasma assessed as half life at 1 uM incubated for 60 min by LC-MS/MS method. In kind it is ADME, cell-free.
Data set [5] in a line: Metabolic stability in beagle dog liver S9 fraction assessed as half life at 1 uM incubated for 60 min by LC-MS/MS method. It is filed as ADME, subcellular, Canis lupus familiaris.
A short description of data set [6]: Cmax in beagle dog at 1 mg/kg, IV administered for 30 mins measured after 24 hrs post dose by LC-MS/MS analysis. To be noted: in vivo. On the set-up: time 24.5 hrs, dose 1 mg/kg, route iv. It is filed as ADME, organism-based, Canis lupus familiaris.
The nature of data set [7]: Half life in Sprague-Dawley rat assessed as BXN at 1 mg/kg, IV administered for 30 mins measured after 24 hrs post dose by LC-MS/MS analysis. It is filed as ADME, organism-based. To be noted: in vivo, 24.5 h.
Data set [8] in a line: AUClast in beagle dog at 1 mg/kg, IV administered for 30 mins measured after 24 hrs post dose by LC-MS/MS analysis. In kind it is ADME, organism-based, Canis lupus familiaris. On the set-up: time 24.5 hrs, dose 1 mg/kg, route iv. To be noted: in vivo.
Data set [9] is described as follows: Prodrug conversion in Sprague-Dawley rat assessed as ratio of AUC for compound to BXN at 1 mg/kg,IV and measured after 60 mins by LC-MS/MS analysis. In kind it is ADME, organism-based. The note with it: in vivo, 1 h.
Data set [10] is described as follows: Prodrug conversion in Sprague-Dawley rat assessed as ratio of AUC for compound to BXN at 5 mg/kg,IM and measured after 60 mins by LC-MS/MS analysis. It is filed as ADME, organism-based. To be noted: in vivo, 1 h.
The nature of data set [11]: AUClast in beagle dog assessed as BXN at 1 mg/kg, IV administered for 30 mins measured after 24 hrs post dose by LC-MS/MS analysis. In kind it is ADME, organism-based, Canis lupus familiaris. More on the design: dose 1 mg/kg, time 24.5 hrs, route iv. To be noted: in vivo, 24.5 h.
Data set [12] in a line: Cmax in Sprague-Dawley rat assessed as BXN at 1 mg/kg, IV administered for 30 mins measured after 24 hrs post dose by LC-MS/MS analysis. It is filed as ADME, organism-based. More on the design: time 24.5 hrs, dose 1 mg/kg, route iv. To be noted: in vivo, 24.5 h.
The nature of data set [13]: Cmax in beagle dog assessed as BXN at 1 mg/kg, IV administered for 30 mins measured after 24 hrs post dose by LC-MS/MS analysis. In kind it is ADME, organism-based, Canis lupus familiaris. On the set-up: dose 1 mg/kg, time 24.5 hrs, route iv. The note with it: in vivo, 24.5 h.
Data set [14] is described as follows: Prodrug conversion in beagle dog assessed as ratio of AUC for compound to BXN at 1 mg/kg,IV and measured after 60 mins by LC-MS/MS analysis. It is filed as ADME, organism-based, Canis lupus familiaris. To be noted: in vivo, 1 h.
Data set [15] can be described thus: Prodrug conversion in beagle dog assessed as ratio of AUC for compound to BXN at 5 mg/kg,IM and measured after 60 mins by LC-MS/MS analysis. In kind it is ADME, organism-based, Canis lupus familiaris. To be noted: in vivo, 1 h.
Data set [16] in a line: AUClast in beagle dog assessed as BXN at 5 mg/kg, IM administered for 30 mins measured after 24 hrs post dose by LC-MS/MS analysis. It is filed as ADME, organism-based, Canis lupus familiaris. More on the design: time 24.5 hrs, dose 5 mg/kg, route im. To be noted: in vivo, 24.5 h.
A short description of data set [17]: Half life in Sprague-Dawley rat at 1 mg/kg, IV administered for 30 mins measured after 24 hrs post dose by LC-MS/MS analysis. To be noted: in vivo, time 24.5 hrs. It is filed as ADME, organism-based.
Data set [18] in a line: Cmax in Sprague-Dawley rat assessed as BXN at 5 mg/kg, IM administered for 30 mins measured after 24 hrs post dose by LC-MS/MS analysis. In kind it is ADME, organism-based. On the set-up: time 24.5 hrs, dose 5 mg/kg, route im. The note with it: in vivo, 24.5 h.
Data set [19] is described as follows: Half life in beagle dog assessed as BXN at 1 mg/kg, IV administered for 30 mins measured after 24 hrs post dose by LC-MS/MS analysis. It is filed as ADME, organism-based, Canis lupus familiaris. To be noted: in vivo, 24.5 h.
Data set [20] can be described thus: Clearance in Sprague-Dawley rat at 1 mg/kg, IV administered for 30 mins measured after 24 hrs post dose by LC-MS/MS analysis. It is filed as ADME, organism-based. To be noted: in vivo, time 24.5 hrs.
Data set [21] is described as follows: AUClast in Sprague-Dawley rat assessed as BXN at 1 mg/kg, IV administered for 30 mins measured after 24 hrs post dose by LC-MS/MS analysis. In kind it is ADME, organism-based. On the set-up: dose 1 mg/kg, time 24.5 hrs, route iv. To be noted: in vivo, 24.5 h.
Data set [22] in a line: Half life in Sprague-Dawley rat assessed as BXN at 5 mg/kg, IM administered for 30 mins measured after 24 hrs post dose by LC-MS/MS analysis. It is filed as ADME, organism-based. To be noted: in vivo, 24.5 h.
The nature of data set [23]: Half life in beagle dog assessed as BXN at 5 mg/kg, IM administered for 30 mins measured after 24 hrs post dose by LC-MS/MS analysis. It is filed as ADME, organism-based, Canis lupus familiaris. The note with it: in vivo, 24.5 h.
Data set [24] in a line: Cmax in Sprague-Dawley rat at 1 mg/kg, IV administered for 30 mins measured after 24 hrs post dose by LC-MS/MS analysis. In kind it is ADME, organism-based. More on the design: time 24.5 hrs, dose 1 mg/kg, route iv. The note with it: in vivo.
Data set [25] is described as follows: AUClast in Sprague-Dawley rat at 1 mg/kg, IV administered for 30 mins measured after 24 hrs post dose by LC-MS/MS analysis. It is filed as ADME, organism-based. More on the design: dose 1 mg/kg, time 24.5 hrs, route iv. To be noted: in vivo.
Data set [26] is described as follows: AUClast in Sprague-Dawley rat assessed as BXN at 5 mg/kg, IM administered for 30 mins measured after 24 hrs post dose by LC-MS/MS analysis. The note with it: in vivo, 24.5 h. On the set-up: time 24.5 hrs, dose 5 mg/kg, route im. In kind it is ADME, organism-based.
The nature of data set [27]: Cmax in beagle dog assessed as BXN at 5 mg/kg, IM administered for 30 mins measured after 24 hrs post dose by LC-MS/MS analysis. In kind it is ADME, organism-based, Canis lupus familiaris. On the set-up: time 24.5 hrs, dose 5 mg/kg, route im. To be noted: in vivo, 24.5 h.
A short description of data set [28]: Metabolic stability in Sprague-Dawley rat liver S9 fraction assessed as half life at 1 uM incubated for 60 min by LC-MS/MS method. It is filed as ADME, subcellular.

As for `CC(=O)OCCCC(=O)O[C@@H]1CC[C@@]2(C)[C@@H](CC[C@@H]3[C@@H]2CC[C@]2(C)[C@@H](C(C)=O)CC[C@@H]32)C1`, the half-life at 1 µM in data set [1] was found to be 1.6 min; in data set [2], 138 min; in [3], 0.9 min; in data set [4] it was 176 min.

As for `CC(=O)[C@H]1CC[C@H]2[C@@H]3CC[C@H]4C[C@H](OC(=O)CC5CCCC5)CC[C@]4(C)[C@H]3CC[C@]12C`, the half-life at 1 µM in data set [3] is 25 min; in [4] it was 300 min.

With `CC(=O)OCCCC(C)C(=O)O[C@@H]1CC[C@@]2(C)[C@@H](CC[C@@H]3[C@@H]2CC[C@]2(C)[C@@H](C(C)=O)CC[C@@H]32)C1` (stereo partly specified), the half-life at 1 µM in data set [2] worked out at 233 min; in data set [3] it was 0.9 min; in data set [4], 145 min; in data set [5] it was 1 min.

In the case of `CC(=O)[C@H]1CC[C@H]2[C@@H]3CC[C@H]4C[C@H](OC(=O)OCc5oc(=O)oc5C)CC[C@]4(C)[C@H]3CC[C@]12C`, the Cmax in data set [6] is 151 ng/mL; in data set [12], 107 ng/mL; in [13], 241 ng/mL; in data set [18], 23.4 ng/mL; in data set [24], 103 ng/mL; in data set [27], 26.6 ng/mL. Besides, the t1/2 turned out to be 1900 min in [7], 28.4 min in [19], 1730 min in [22] and 618 min in data set [23]. The AUC(0-t) at 24.5 h in [8] stood at 62.6 ng·h/mL; in data set [25], 38.6 ng·h/mL. Further, the “Ratio AUC” value was more than 253 in data set [9], 2.9 in data set [10], 2.4 in data set [14] and more than 122 in data set [15]. For the same compound, the AUClast in [11] was determined as 148 ng·h/mL; in [16], 122 ng·h/mL; in data set [21], 113 ng·h/mL; in data set [26] it was 253 ng·h/mL. Besides, the half-life in data set [17] is 17 min. Also, the half-life at 1 µM in [1] is less than 2 min; in [2], 30 min; in data set [3], 1.2 min; in data set [4] it was 40 min; in data set [5] it was 2.3 min. The same compound had a clearance in data set [20] of 440 mL/min/kg.

As for `CC(=O)[C@H]1CC[C@H]2[C@@H]3CC[C@H]4C[C@H](OC(=O)CCCOC(=O)C(C)C)CC[C@]4(C)[C@H]3CC[C@]12C`, the half-life at 1 µM was determined as 1.1 min in data set [28]; 1.2 min in data set [1]; 233 min in [2]; 1.2 min in data set [3]; 140 min in data set [4]; 1.9 min in [5].

With `CCCCOC(=O)O[C@@H]1CC[C@@]2(C)[C@@H](CC[C@@H]3[C@@H]2CC[C@]2(C)[C@@H](C(C)=O)CC[C@@H]32)C1`, the half-life at 1 µM in data set [28] is 16 min; in data set [1], 6.3 min; in data set [2], 132 min; in data set [3] it was 1.6 min; in [4], more than 233 min; in data set [5], 1.5 min.

Take `CC(=O)[C@H]1CC[C@H]2[C@@H]3CC[C@H]4C[C@H](OC(=O)NCCOC(=O)C(C)C)CC[C@]4(C)[C@H]3CC[C@]12C`: the half-life at 1 µM stood at 0.6 min in [3] and 289 min in data set [4].

As usually defined, the half-life is how long it takes for the measured level to halve. For orientation: Cmax means the highest concentration seen after dosing. Broadly, the AUC(0-t) is the area under the concentration-time curve up to a stated or last time point. A low value points to less exposure. In general, clearance refers to the rate of elimination divided by the concentration. A high value points to efficient removal.
